Literature values in patent US11723919B2, “Composition or combination comprising anionic dietary supplement and 25-hydroxy vitamin D” (Phibro Animal Health Corporation, priority 2020, dated 2023).

Tested on: dairy cows
Conditions: administration pre- or post-calving; Guo et al. 2018

For `C=C1CC[C@H](O)C/C1=C/C=C1\CCC[C@]2(C)[C@@H]([C@H](C)CCCC(C)(C)O)CC[C@@H]12` [25-hydroxy vitamin D, 25-hydroxy vitamin D3], the “effect on milk yield” value is given as “no effect”.
